In patent US9120749B2, “Quinoline derivatives and MELK inhibitors containing the same” (ONCOTHERAPY SCIENCE, INC., priority 2010, dated 2015):
Counter-ions that a name gives are not always drawn. Like-named read-outs stand apart in the source and are kept apart here.

Key:
MELK = MELK (Homo sapiens, UniProt Q14680); test: Kinase assay: MELK activity, phosphorylation of FITC-labeled histone H3 peptide measured by IMAP fluorescence polarization; format: biochemical; conditions: read-out: IC50 (μM) (kinase assay)
Sequence of MELK (Q14680 whole entry, looked up): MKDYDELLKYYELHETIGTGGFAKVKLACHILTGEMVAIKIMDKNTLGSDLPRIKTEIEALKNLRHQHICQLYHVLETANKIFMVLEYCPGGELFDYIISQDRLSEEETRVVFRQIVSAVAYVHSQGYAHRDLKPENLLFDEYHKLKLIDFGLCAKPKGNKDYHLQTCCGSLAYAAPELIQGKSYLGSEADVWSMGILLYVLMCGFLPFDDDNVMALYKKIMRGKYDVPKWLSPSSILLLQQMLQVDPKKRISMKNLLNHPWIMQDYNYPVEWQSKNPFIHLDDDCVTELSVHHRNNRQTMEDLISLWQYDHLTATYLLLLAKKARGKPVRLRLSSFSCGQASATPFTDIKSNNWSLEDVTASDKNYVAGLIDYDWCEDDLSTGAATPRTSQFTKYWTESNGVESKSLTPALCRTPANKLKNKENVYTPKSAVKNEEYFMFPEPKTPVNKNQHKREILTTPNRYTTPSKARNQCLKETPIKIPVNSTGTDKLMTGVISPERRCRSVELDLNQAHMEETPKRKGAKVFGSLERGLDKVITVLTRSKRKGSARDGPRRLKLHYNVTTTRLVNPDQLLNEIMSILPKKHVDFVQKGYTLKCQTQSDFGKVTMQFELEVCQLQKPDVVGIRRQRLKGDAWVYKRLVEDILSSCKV
How it was run: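 FP readout: FITC-histone H3 peptide phosphorylation, read 0.5 h (RT) after stopping with 3x volume of IMAP progressive binding solution. Final DMSO 1%.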

BT-549 cells = test: Cell-based assay: anti-proliferative activity, Cell Counting Kit-8, 72 hours (BT-549); conditions: BT549 cells, MELK-expressing, Cell Counting Kit-8 at 72 hours
Protocol: To evaluate the expression status of MELK in several cell lines, western blot analysis was performed using crude cell lysate collected from those cells. Anti-MELK antibody (clone 31, BD Biosciences) was used to visualize the expression.
Active candidate inhibitors against MELK were evaluated for their target-specific cytotoxicity using T47D, A549, BT-549, and HT-1197 cells was used for negative control. 100 micro-L of cell suspension was seeded onto 96-well microtiter plate (ViewPlate-96FTC, PerkinElmer). The initial cell concentration of T47D, A549, BT-549, and HT-1197 were 3,000 cells/well, 2,000 cells/well and 2,500 cells/well, respectively. Cellular growth was determined using Cell Counting Kit-8 (DOJINDO) at 72 hours after the exposure of the candidate inhibitors. […] Accurate IC50 values were calculated as described previously.

T47D cells = test: Cell-based assay: anti-proliferative activity, Cell Counting Kit-8, 72 hours (T47D)
How it was run: (§1)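 Cellular growth is read by CCK-8 colorimetric kit 72 h after inhibitor addition to seeded cells, and IC50 values are derived from the resulting data; MELK protein levels in these lines are checked beforehand by immunoblotting whole crude lysate.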

A549 cells = test: Cell-based assay: anti-proliferative activity, Cell Counting Kit-8, 72 hours (A549)
How it was run: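 Cell Counting Kit-8 read-out of A549 growth after 72 hours of inhibitor exposure, cells plated in 96-well format. Values reported as IC50.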

HT-1197 cells = test: Cell-based assay: anti-proliferative activity, Cell Counting Kit-8, 72 hours (HT-1197, negative control without MELK expression)
How it was run: as §1

22Rv1 cells = test: Cell-based assay: anti-proliferative activity, Cell Counting Kit-8, 72 hours (22Rv1)
DU4475 cells = test: Cell-based assay: anti-proliferative activity, Cell Counting Kit-8, 72 hours (DU4475)
[1] = 50 micro-M ATP, FITC-labeled histone H3 peptide substrate, IMAP fluorescence polarization
[2] = Homo sapiens, T47D, 72 h, MELK-expressing, Cell Counting Kit-8 at 72 hours
[3] = Homo sapiens, A549, 72 h, MELK-expressing, Cell Counting Kit-8 at 72 hours
[4] = Homo sapiens, HT1197, 72 h, HT1197 cells, no MELK expression (negative control), Cell Counting Kit-8 at 72 hours
[5] = MELK-expressing, Cell Counting Kit-8 at 72 hours, dihydrochloride
[6] = MELK kinase assay, IMAP fluorescence polarization, 50 micro-M ATP
[7] = Homo sapiens, A549, 72 h, 72 hours
[8] = Homo sapiens, HT1197, 72 h, HT1197 cells (negative control, no MELK expression), 72 hours

Row | Structure (SMILES) | IC50 (MELK; [6]) [µM] | IC50 (T47D cells; Homo sapiens, T47D, 72 h) [µM] | IC50 (A549 cells; [7]) [µM] | IC50 (HT-1197 cells; [8]) [µM] | IC50 (22Rv1 cells; Homo sapiens, 22Rv1, 72 h) [µM] | IC50 (DU4475 cells; Homo sapiens, DU-4475, 72 h) [µM] | IC50 (MELK) [µM] | also measured
1 | CCN(CC)[C@H]1CC[C@H](Nc2c(C(=O)C3CC3)cnc3ccc(-c4cc(Cl)c(O)c(OC)c4)cc23)CC1 [Example 314, {6-(3-Chloro-4-hydroxy-5-methoxyphenyl)-4-[trans-4-(diethylamino)cyclohexylamino]quinolin-3-yl}(cyclopropyl)methanone] | – | – | – | – | – | – | – | IC50 (MELK; [1]): 0.0031 µM; IC50 (BT-549 cells; Homo sapiens, BT-549, 72 h): 0.73 µM; IC50 (T47D cells; [2]): 0.16 µM; IC50 (A549 cells; [3]): 0.22 µM; IC50 (HT-1197 cells; [4]): 4.3 µM
2 | COc1cc(-c2ccc3ncc(C(=O)C4CC4)c(NC4CCN(C)CC4)c3c2)cc(Cl)c1O [Example 249] | – | – | – | – | – | – | – | IC50 (MELK; [1]): 0.0079 µM; IC50 (BT-549 cells; Homo sapiens, BT-549, 72 h): 1.3 µM; IC50 (T47D cells; [2]): 0.83 µM; IC50 (A549 cells; [3]): 0.3 µM; IC50 (HT-1197 cells; [4]): 4.4 µM
3 | CCN(CC)C1CCC(Nc2c(C(=O)C3CC3)cnc3ccc(-c4cc(Cl)c(O)c(OC)c4)cc23)CC1 (centres unmarked) [Example 185(b), {6-(3-Chloro-4-hydroxy-5-methoxyphenyl)-4-[4-(diethylamino)cyclohexylamino]quinolin-3-yl}(cyclopropyl)methanone dihydrochloride] | – | – | – | – | – | – | – | IC50 (BT-549 cells; dihydrochloride): 1 µM; IC50 (T47D cells; [5]): 0.49 µM; IC50 (A549 cells; [5]): 0.18 µM; IC50 (HT-1197 cells; HT1197 cells, no MELK expression (negative control), Cell Counting Kit-8 at 72 hours, dihydrochloride): 4.7 µM
4 | CC(=O)c1cnc2ccc(-c3cc(Cl)c(O)c(Cl)c3)cc2c1N[C@H]1CCC[C@H](CCN(C)C)C1 [Example 861, 1-(6-(3,5-dichloro-4-hydroxyphenyl)-4-(((1S,3R)-3-(2-(dimethylamino)ethyl)cyclohexyl)amino)quinolin-3-yl)ethanone hydrochloride] | 0.0032 | 0.22 | 0.25 | 1 | 0.24 | 0.19 | – | –
5 | CC(=O)c1cnc2ccc(-c3cc(F)c(O)c(Cl)c3)cc2c1N[C@H]1CC[C@H](CN2CCC[C@@H]2CO)CC1 [Example 808, 1-(6-(3-chloro-5-fluoro-4-hydroxyphenyl)-4-(1R,4R)-4-(((R)-2-(hydroxymethyl)pyrrolidin-1-yl)methyl)cyclohexylamino)quinolin-3-yl)ethanone hydrochloride] | – | 0.12 | 0.22 | 8.2 | 0.22 | 0.11 | 0.0065 | –
6 | CNC1CCN(c2ccc(Nc3c(C(C)=O)cnc4ccc(-c5cc(F)c(O)c(Cl)c5)cc34)cn2)C1 (centres unmarked) [Example 785, 1-(6-(3-chloro-5-fluoro-4-hydroxyphenyl)-4-((6-(3-(methylamino)pyrrolidin-1-yl)pyridin-3-yl)amino)quinolin-3-yl)ethanone trihydrochloride] | – | 0.035 | 0.094 | 1.3 | 0.076 | 0.074 | 0.0056 | –
7 | CC(=O)c1cnc2ccc(-c3cc(F)c(O)c(Cl)c3)cc2c1NC1CCN(CCN(C)C)CC1 [Example 821, 1-(6-(3-chloro-5-fluoro-4-hydroxyphenyl)-4-(1-(2-(dimethylamino)ethyl)piperidin-4-ylamino)quinolin-3-yl)ethanone] | 0.0053 | 0.23 | 0.59 | 3.3 | 0.25 | 0.17 | – | –
8 | COc1cc(-c2ccc3ncc(C(C)=O)c(N[C@H]4CC[C@H](CN5CCC(N)C5)CC4)c3c2)cc(Cl)c1O (stereo partly drawn) [Example 780, 1-(4-(1R,4R)-4-((3-aminopyrrolidin-1-yl)methyl)cyclohexylamino)-6-(3-chloro-4-hydroxy-5-methoxyphenyl)quinolin-3-yl)ethanone hydrochloride] | – | 0.41 | 0.62 | 3.2 | 0.67 | 1.5 | 0.002 | –
9 | CN(C)CCN1CCC(Nc2c(C(=O)C3CC3)cnc3ccc(-c4cc(Cl)c(O)c(Cl)c4)cc23)CC1 [Example 820, cyclopropyl(6-(3,5-dichloro-4-hydroxyphenyl)-4-(1-(2-(dimethylamino)ethyl)piperidin-4-ylamino)quinolin-3-yl)methanone] | 0.0018 | – | – | – | – | – | – | IC50 (T47D cells; 72 hours): 0.32 µM; IC50 (A549 cells; 72 hours): 0.46 µM; IC50 (HT-1197 cells; HT1197 cells (negative control, no MELK expression), 72 hours): 2.9 µM; IC50 (22Rv1 cells): 0.82 µM; IC50 (DU4475 cells): 0.15 µM
